Results taken from patent US11840686B2, “Modulation of prekallikrein (PKK) expression” (Ionis Pharmaceuticals, Inc., priority 2013, dated 2023).
Strand notation (5' to 3'): a small letter for the sugar, then the base; units joined by * are phosphorothioate-linked, units joined directly phosphodiester-linked; [ ] holds rarer units or linkages, { } end groups; capitals alone tell only the bases. e = 2'-O-(2-methoxyethyl) (MOE); [5mC] = 5-methylcytosine; d = 2'-deoxy (DNA)

Tested on: human PKK mRNA
Experiment: Antisense inhibition of human PKK mRNA in HepaRG cells, 5,000 nM (Example 2)
Assay type: cell-based
Experimental: Additional antisense oligonucleotides were designed targeting a PKK nucleic acid and were tested for their effects on PKK mRNA in vitro.
The chimeric antisense oligonucleotides in the tables below were designed as 5-10-5 MOE gapmers, 4-9-4 MOE gapmers, 4-10-4 MOE gapmers, 4-10-3 MOE gapmers, 3-10-4 MOE gapmers, or 3-10-3 MOE gapmers. The 5-10-5 MOE gapmers are 20 nucleosides in length, wherein the central gap segment comprises of ten 2′-deoxynucleosides and is flanked by wing segments on the 5′ direction and the 3′ direction comprising five nucleosides each. The 4-9-4 MOE gapmers are 17 nucleosides in length, wherein the central gap segment comprises of nine 2′-deoxynucleosides and is flanked by wing segments on the 5′ direction and the 3′ direction comprising four nucleosides each. The 4-10-4 MOE gapmers are 18 nucleosides in length, wherein the central gap segment comprises of ten 2′-deoxynucleosides and is flanked by wing segments on the 5′ direction and the 3′ direction comprising four nucleosides each. The 4-10-3 MOE gapmers are 17 nucleosides in length, wherein the central gap segment comprises of ten 2′-deoxynucleosides and is flanked by wing segments on the 5′ direction and the 3′ direction comprising four and three nucleosides respectively. The 3-10-4 MOE gapmers are 17 nucleosides in length, wherein the central gap segment comprises often 2′-deoxynucleosides and is flanked by wing segments on the 5′ direction and the 3′ direction comprising three and four nucleosides respectively. The 3-10-3 MOE gapmers are 16 nucleosides in length, wherein the central gap segment comprises of ten 2′-deoxynucleosides and is flanked by wing segments on the 5′ direction and the 3′ direction comprising three nucleosides each. Each nucleoside in the 5′ wing segment and each nucleoside in the 3′ wing segment has a 2′-O-methoxyethyl modification. The internucleoside linkages throughout each gapmer are phosphorothioate linkages. All cytosine residues throughout each gapmer are 5-methylcytosines. “Start site” indicates the 5′-most nucleoside to which the gapmer is targeted in the human gene sequence. “Stop site” indicates the 3′-most nucleoside to which the gapmer is targeted in the human gene sequence.
Cultured HepaRG™ cells at a density of 20,000 cells per well were transfected using electroporation with 5,000 nM antisense oligonucleotide. After a treatment period of approximately 24 hours, RNA was isolated from the cells and PKK mRNA levels were measured by quantitative real-time PCR. Human primer probe set RTS3454 was used to measure mRNA levels. PKK mRNA levels were adjusted according to total RNA content, as measured by RIBOGREEN®. The antisense oligonucleotides were tested in a series of experiments that had similar culture conditions. Results are presented as percent inhibition of PKK, relative to untreated control cells.

[1] = HepaRG cells, electroporation, 5,000 nM antisense oligonucleotide, approx. 24 hours, primer probe set RTS3454, relative to untreated control cells, Table 11
[2] = human PKK mRNA, HepaRG cells, 5-10-5 motif oligonucleotides targeting SEQ ID NO: 1 and 10
[3] = HepaRG cells, 5,000 nM antisense oligonucleotide, human PKK mRNA, Table 18
[4] = human PKK mRNA, HepaRG cells, 5,000 nM antisense oligonucleotide, Table 18
[5] = HepaRG cells, 5,000 nM antisense oligonucleotide, 5-10-5 gapmers, Table 16
[6] = HepaRG cells, 5,000 nM antisense oligonucleotide, 5-10-5 gapmers, Table 17
[7] = HepaRG cells, electroporation with 5,000 nM antisense oligonucleotide, approximately 24 hours, PKK mRNA by RT-PCR (RTS3454), relative to untreated control cells, Table 6 experiment

## 546390 (eG*eT*e[5mC]*eA*eG*d[5mC]*d[5mC]*d[5mC]*d[5mC]*dT*dG*dG*dT*dT*dA*e[5mC]*eG*eG*e[5mC]*eG; antisense) [compound 546390]
[1]
  % inhibition: 70%

## 547650 (eG*eT*eA*e[5mC]*e[5mC]*dT*dA*dT*dA*dA*d[5mC]*dA*dG*dT*dA*eT*e[5mC]*eA*e[5mC]*eT; antisense) [compound 547650]
[2]
  % inhibition: 32%

## 546348 (antisense eG*e[5mC]*eA*eA*eA*d[5mC]*dT*dA*dA*dG*dG*dG*dA*d[5mC]*d[5mC]*eA*e[5mC]*e[5mC]*eT*eG) [compound 546348]
Table 9 experiment, HepaRG cells, 20,000 cells per well, electroporation with 5,000 nM antisense oligonucleotide, approx. 24 hours, PKK mRNA by RT-PCR (RTS3454), relative to untreated control cells
  % inhibition: 79%
Table 10 experiment, HepaRG cells, 20,000 cells per well, electroporation with 5,000 nM antisense oligonucleotide, approx. 24 hours, PKK mRNA by RT-PCR (RTS3454), relative to untreated control cells
  % inhibition: 76%

## 547672 (e[5mC]*eA*eA*eT*eA*dT*d[5mC]*dA*d[5mC]*dT*dG*dT*d[5mC]*d[5mC]*dT*eA*e[5mC]*eA*eA*e[5mC]; antisense) [compound 547672]
[2]
  % inhibition: 36%

## 548706 (DNA e[5mC]*eT*eA*dG*dT*dT*dT*d[5mC]*d[5mC]*dT*dA*dT*dA*eA*e[5mC]*eT; antisense) [compound 548706]
[3]
  % inhibition: 0%

## 548780 (antisense eT*eG*eT*e[5mC]*d[5mC]*dT*dA*dT*dA*dA*d[5mC]*dT*dA*eT*eA*eA*e[5mC]) [compound 548780]
[4]
  % inhibition: 22%

## 547698 (antisense eA*e[5mC]*e[5mC]*eT*eA*dT*dA*dA*d[5mC]*dT*dA*dT*dA*dA*d[5mC]*eA*eA*eT*eA*eT) [compound 547698]
[5]
  % inhibition: 0%

## 547280 (antisense eG*eA*eA*eA*eA*d[5mC]*dA*d[5mC]*dA*dA*dT*dT*dG*d[5mC]*dT*eT*e[5mC]*eT*eT*eG) [compound 547280]
HepaRG cells, electroporation with 5,000 nM antisense oligonucleotide, approximately 24 hours, PKK mRNA by RT-PCR (RTS3454), relative to untreated control cells, Table 5 experiment
  % inhibition: 47%

## 547735 (eG*eG*eT*eA*eG*dG*dA*dT*dT*dG*dG*dT*dG*dG*dT*eG*eG*eG*eA*eT; antisense) [compound 547735]
[6]
  % inhibition: 39%

## 547315 (antisense eA*eA*e[5mC]*eT*eG*d[5mC]*dA*d[5mC]*d[5mC]*dT*dG*dT*dT*d[5mC]*dG*eA*eT*eG*eT*eA) [compound 547315]
[7]
  % inhibition: 50%

## 547770 (antisense eT*eG*e[5mC]*eT*eT*dT*d[5mC]*dT*dG*d[5mC]*d[5mC]*d[5mC]*dA*dA*d[5mC]*e[5mC]*eT*e[5mC]*eT*eA) [compound 547770]
[6]
  % inhibition: 48%

## 547758 (antisense e[5mC]*e[5mC]*eA*eA*eG*dT*dA*dG*dT*dG*d[5mC]*dA*dA*dG*dG*e[5mC]*eA*eT*eG*eT) [compound 547758]
[6]
  % inhibition: 24%

## 548761 (antisense e[5mC]*eT*eA*eA*d[5mC]*dA*dG*dT*dA*dT*d[5mC]*dA*d[5mC]*eT*eG*eT*eA) [compound 548761]
[4]
  % inhibition: 49%

## 546368 (antisense eG*eG*eT*eT*eG*dT*dA*dA*dA*dA*dA*dT*dT*dG*d[5mC]*e[5mC]*eT*eA*eG*eA) [compound 546368]
[1]
  % inhibition: 44%

## 548718 (DNA eT*eA*e[5mC]*dT*dA*dG*dT*dT*dT*d[5mC]*d[5mC]*dT*dA*eT*eA*eA*e[5mC]; antisense) [compound 548718]
[3]
  % inhibition: 0%

## 547320 (antisense eA*eG*eG*eA*eA*dT*dG*dT*d[5mC]*d[5mC]*dA*dG*dA*dA*dA*e[5mC]*eT*eG*e[5mC]*eA) [compound 547320]
[7]
  % inhibition: 73%

## 547656 (e[5mC]*eA*eA*eT*eA*dT*d[5mC]*dA*d[5mC]*dT*dG*dT*d[5mC]*d[5mC]*dT*eA*eT*eA*eA*e[5mC]; antisense) [compound 547656]
[2]
  % inhibition: 42%

## 546942 (eT*eA*e[5mC]*eA*e[5mC]*dT*dG*dA*dA*d[5mC]*d[5mC]*d[5mC]*d[5mC]*d[5mC]*dT*eT*eA*eG*eG*e[5mC]; antisense) [compound 546942]
[5]
  % inhibition: 56%
